Assays:
Assay type in all cases: in vivo, mice
[1] = system: Delayed-type hypersensitivity (DTH) induced by sheep red blood cell (SRBC); test: Mouse footpad swelling assay (DTH); details: for Footpad swelling: 24 hours after second SRBC injection, n=10
Procedure: For each study, forty mice were divided into 4 groups with 10 mice per group (n=10). These four groups were control, theaflavin (low), theaflavin (mid), and theaflavin (high). The latter three were theaflavin-treated groups in which theaflavin (capsule, Xiayie™, prepared according to the method described in U.S. Pat. […] […] […] […] Statistical differences between groups were calculated using SPSS 11.0 with student t test plus Dunnett method.
Delayed-type hypersensitivity (DTH) is an immune reaction induced by antigen. In the mice footpads at which DTH was elicited, transient swellings which usually peaked at 24-48 hours after the antigen challenge was observed. This assay of measuring footpad swelling of mice caused by a DTH reaction was used to test effects of theaflavin is on immune responses.
The Sheep red blood cell (SRBC) was taken from sheep and washed triple with physiological saline, centrifugated at 1500 g for 10 min, and adjusted to a final concentration of 2%. Each mouse was given a single injection of 0.2 ml of prepared 2% SRBC. On day 4 after the SRBC injection, each mouse was given an […] injection (the second injection) of 0.02 ml of prepared 20% SRBC. Mouse footpad thicknesses were measured before and 24 hours after the second injection. Mouse footpad swelling values were calculated from the difference between these two measurements.

[2] = Weights of immune-related organs (spleen, thymus) after 30-day feeding; details: for Spleen Weight change / Thymus Weight change: mice, n=10, 30 days
Procedure: (§1) Female mice (Kuengming, China) weighing 18-22 g were used. The animals were housed in individual stainless steel cages in an air-conditioned room under a 12:12 hour light:dark cycle. A commercial pellet diet and water were provided throughout the experiment. All procedures were conducted in accordance with the P.R. China legislation under No. 8910M047 on the use and care of laboratory animals.
(§2) For each study, forty mice were divided into 4 groups with 10 mice per group (n=10). These four groups were control, theaflavin (low), theaflavin (mid), and theaflavin (high). The latter three were theaflavin-treated groups in which theaflavin (capsule, Xiayie™, prepared according to the method described in U.S. Pat. […] Water was fed for the control group. For the organ weight study, animals were sacrificed after the 30-day study, followed by collecting spleens and thymus for weight measurement. For the other studies, animals were harvested for further analyses as described below. Statistical differences between groups were calculated using SPSS 11.0 with student t test plus Dunnett method.

[3] = Mouse body weight after 30-day theaflavin feeding; details: for BW change: mice, n=10, 30 days
Procedure: as §1, §2

[4] = system: Sheep red blood cell (SRBC); test: Mouse plasma hemolysin assay; details: for Antibody integrand: plasma on day 5 after SRBC injection, n=10
Procedure: For each study, forty mice were divided into 4 groups with 10 mice per group (n=10). These four groups were control, theaflavin (low), theaflavin (mid), and theaflavin (high). The latter three were theaflavin-treated groups in which theaflavin (capsule, Xiayie™, prepared according to the method described in U.S. Pat. No. 8,282,970) was fed to mice at a dose of 83 mg, 250 mg, and 500 mg per kg body weight per day for 30 days for the low, mid, and high group, respectively. Water was fed for the control group. For the organ weight study, animals were sacrificed after the 30-day study, followed by collecting spleens and thymus for weight measurement. For the other studies, animals were harvested for further analyses as described below. Statistical differences between groups were calculated using SPSS 11.0 with student t test plus Dunnett method.
Each mouse was given a single injection of 0.2 ml of 2% SRBC from the above-described preparation. On day 5 after the SRBC injection, the plasma was collected by centrifuging the mouse eye blood at 2000 r/min for 10 min, then was stored into a sterile tube. With a micro hemagglutinin-assay plate, the plasma was diluted to a series of concentrations, then […] of 0.5% SRBC suspension was added. The contents were is mixed by vortexing and incubated for 3 h in a 37° C., 5% CO2 incubator, after which the hemagglutination was observed under microscope. The data were presented as antibody integrand.

[5] = theaflavin treatment for 30 days, compared to control

Compound: O=c1c(O)cc([C@H]2Oc3cc(O)cc(O)c3C[C@H]2O)cc2c([C@H]3Oc4cc(O)cc(O)c4C[C@H]3O)cc(O)c(O)c12 [Theaflavin, theaflavin]
- Footpad swelling ([1]; 167 mg/kg.BW (Low)): 1.46 ± 0.39 mm
- Footpad swelling ([1]; 333 mg/kg.BW (Mid)): 1.24 ± 0.24 mm
- Footpad swelling ([1]; 500 mg/kg.BW (High)): 1.53 ± 0.49 mm
- mouse footpad swelling compared to control ([1]; theaflavin low and high groups): statistically significant mouse footpad swelling
- Spleen Weight change ([2]; 167 mg/kg.BW (Low)): 0.47 ± 0.13%
- Thymus Weight change ([2]; 167 mg/kg.BW (Low)): 0.42 ± 0.07%
- Spleen Weight change ([2]; 333 mg/kg.BW (Mid)): 0.46 ± 0.10%
- Thymus Weight change ([2]; 333 mg/kg.BW (Mid)): 0.43 ± 0.12%
- Spleen Weight change ([2]; 500 mg/kg.BW (High)): 0.45 ± 0.07%
- Thymus Weight change ([2]; 500 mg/kg.BW (High)): 0.42 ± 0.11%
- effect on weights of immune system related organs, i.e., spleen and thymus [2, 5]: no effect
- BW change ([3]; study I, 167 mg/kg.BW (Low)): 12.70 ± 0.82 g
- BW change ([3]; study I, 333 mg/kg.BW (Mid)): 12.80 ± 0.79 g
- BW change ([3]; study I, 500 mg/kg.BW (High)): 12.50 ± 0.71 g
- BW change ([3]; study II, 167 mg/kg.BW (Low)): 12.00 ± 0.67 g
- BW change ([3]; study II, 333 mg/kg.BW (Mid)): 11.80 ± 0.63 g
- BW change ([3]; study II, 500 mg/kg.BW (High)): 12.70 ± 0.92 g
- BW change ([3]; study III, 167 mg/kg.BW (Low)): 11.90 ± 0.88 g
- BW change ([3]; study III, 333 mg/kg.BW (Mid)): 12.80 ± 0.63 g
- BW change ([3]; study III, 500 mg/kg.BW (High)): 11.90 ± 0.57 g
- BW change ([3]; study IV, 167 mg/kg.BW (Low)): 13.00 ± 0.94 g
- BW change ([3]; study IV, 333 mg/kg.BW (Mid)): 11.90 ± 0.77 g
- BW change ([3]; study IV, 500 mg/kg.BW (High)): 12.00 ± 0.47 g
- effect on mice body weights [3, 5]: no effect
- Antibody integrand ([4]; 167 mg/kg.BW (Low)): 143.80 ± 35.23
- Antibody integrand ([4]; 333 mg/kg.BW (Mid)): 123.20 ± 20.37
- Antibody integrand ([4]; 500 mg/kg.BW (High)): 146.40 ± 26.46
- mouse plasma hemolysin assay result compared to control ([4]; theaflavin low and high groups): statistically significant results
